Patent US20040121474A1, “Detection and evaluation of chemically-mediated and ligand-mediated t-cell activation using optophoretic analysis” (Genoptix, Inc, priority 2002, published 2004)
Where a name gives a salt, the structure may show the parent alone. Read-outs that look alike come from different tables or passages of the source.

Tests used:
[1] = system: wild type Staphylococcus aureus; assay: Bacterial screen for drug sensitivity, escape velocity; format: cell-based; settings: 5 μg/ml Erythromycin
Experimental: (§1) In this experiment, escape velocity was measured over time in wild type Staphylococcus aureus and an Erythromycin-resistant strain. 5 μg/ml of Erythromycin was applied to both the wild type Staphylococcus aureus and an Erythromycin-resistant strain. Escape velocity measurements were taken at time zero, 30 minutes post-treatment, and 3 hours post-treatment. […] In this experiment, however, escape velocity measurements were made at time zero, 30 minutes post-treatment, and 1 hour post-treatment, and 2 hours post-treatment. A reduction in escape velocity of the Erythromycin-sensitive strain can be seen at 1 hour post-treatment.

[2] = system: Erythromycin-resistant strain; assay: as above; format: cell-based, Staphylococcus aureus; settings: 5 μg/ml Erythromycin
Experimental: as §1

[3] = system: K562, BV-173, EM-3, and U-937 cells; assay: Escape velocity, effect of Gleevec; format: cell-based; settings: 72 hours after exposure, all four cell types
Text: The U-937 cells have no copies of the gene. The K-562 line of cells has, on average, one copy of the gene per cell. The BV-173 line of cells has, on average, three copies of the gene per cell. The EM-3 cell line has, on average, five copies of the gene per cell. […] FIG. 44 illustrates the measured escape velocities (average) for each of the four cell types. […] In addition, the decrease in escape velocity for the Gleevec-treated cells was more pronounced in those cell lines that had higher copy numbers of the Bcr-Abl gene.

[4] = system: K-562, BV-173, EM-3, and U-937 cell lines; assay: Fast scan analysis, effect of Gleevec; format: cell-based; settings: 1 μM Gleevec, 48 hours, U-937 cells excepted
Text: (§2) FIGS. 30A and 30B show optical interrogation of a group of cells 610 using a fast scan analysis. In this method, a moving optical gradient 612 (laser beam) in the form of a line is moved relative to the cells 610. […] Instead, an image can be taken of the cells 610 prior to the scan to determine the starting position of each cell 610. […] The distances traveled can be obtained by images taken of the cells 610 before and after the scanning process. The optical gradient 612 is moved at a speed that is higher than the escape velocity of all the cells 610 within the group. In this manner, all of the cells 610 are left behind the moving optical gradient 612. In an alternate fast scan embodiment, the cells 610 are initially lined up at a starting position A. After aligning the cells 610, the optical gradient 612 is rapidly moved and their distance of travel is measured by optical imaging. It should be understood that fast scan analysis may include multiple scans or “sweeps” of the cells 610. Generally, it has been observed that multiple scans produce larger cell movements.

U937 cells [5] = assay: Escape velocity, PMA inhibition by bisindolymaleimide; format: cell-based; settings: for Escape velocity Ave.: four hours
Text: The objective of this experiment was to test the effect of bisindolymaleimide on cells exposed to PMA. Bisindolymaleimide is a Protein Kinase C inhibitor and should block the effect of PMA on U937 cells and their escape velocities. As shown in this and prior experiments, exposure of U937 cells to PMA results in an increase in the escape velocity of the cells. Therefore, it is anticipated that addition of bisindolymaleimide will reduce or eliminate the increase in escape velocity caused by PMA. This has in fact been observed in the data shown below.
Bisindolymaleimide was tested at two concentrations: 200 ng/ml and 50 ng/ml. Samples not treated with bisindolymaleimide received an equivalent amount of the carrier, MeOH, as a control. […] The concentration of PMA tested was 10 ng/ml. Samples not receiving PMA received DMSO.
Once the flasks were prepared, they were incubated at 37° C. 5% CO2 for four hours. At the four hour timepoint, 300 μl of cells were removed from each flask and pelleted at 5000 rpm for 5 minutes. The cells were then resuspended in 6 ml PBS/1% BSA and 60 μl trypan blue.

Chang liver cells [6] = format: cell-based; settings: human, 1 μm
Text: as §2
This experiment is designed to test the effect of ketoconazole on human liver cells. Ketoconazole induces toxicity in liver cells. The sample cells were Chang liver cells. The concentration of ketoconazole used to treat the cells was 1 μm. […]

Chang liver cells [7] = assay: Escape velocity, toxicity of ketoconazole to liver cells; format: cell-based, human; settings: 1 μm of ketoconazole, 1.5 hours of treatment
Experimental: This experiment is designed to test the effect of ketoconazole on human liver cells. Ketoconazole induces toxicity in liver cells. The sample cells were Chang liver cells. The concentration of ketoconazole used to treat the cells was 1 μm. Escape velocity and fast scan protocols were applied to determine the impact, if any, of ketoconazole treatment. […] Consequently, Optophoresis was able to detect an effect on the escape velocity of treated cells within 1.5 hours of exposure to ketoconazole. FIGS. 44-45 show the fast scan results of ketoconazole-treated Chang liver cells. […] The ketoconazole-treated cells generally traveled a smaller distance as compared to the non-treated control.

U937 cells [8] = system: U937 cells
Experimental: This experiment is designed to compare the effects of two concentrations of sodium salicylate on U937 cells. Sodium salicylate was prepared at two concentrations: 20 mM and 5 mM. The escape velocities of the cells was tested at 5 hours, 24 hours and 47 hours. At each timepoint, 30 μl of sample was pelleted at 5,000 rpm for 5 minutes and then resuspended in PBS/1% BSA and trypan blue.

Jurkat cells = assay: Escape velocity, TNF-α effect on Jurkat cells; format: cell-based; settings: TNF inhibitor added with TNF
Experimental: After 48 hours of incubation, the cells were removed and centrifuged for 5 minutes at 5,000 rpm. Then the cells were resuspended in PBS/1% BSA and trypan blue. A higher power setting, 140 mW instead of 100 mW, was used for this experiment. The escape velocities were measured as follows:
In this experiment Leflunomide and Silymarin were added with TNF to see if the anticipated increase in escape velocity measurements could be counteracted by the presence of the TNF inhibitors.

CEM/C2 = CEM/C2 cell line obtained from ATCC; cited from earlier work
CCRF-CEM = assay: Escape velocity, topotecan on sensitive cell line; format: cell-based; settings: 10 μM topotecan, 6 hours
Experimental: In a fifth experiment, two different cell lines obtained from ATCC which have varying degrees of sensitivity to topoisomerase I inhibitors such as camptothecin and topotecan were subject to Optophoretic analysis. A group of cells from a parental cell line CCRF-CEM that is sensitive to camptothecin and topotecan were incubated for 6 hours with 10 μM topotecan. Another group of cells from the cell line CEM/C2, which are 970-fold less sensitive to camptothecin and topotecan, were also incubated for 6 hours with 10 μM topotecan. Control cells from both the CCRF-CEM and CEM/C2 cell lines were also tested. […] Escape velocity measurements were then taken using a 100 mW laser with a diameter of 28 pixels. […] Optophoretic analysis was thus able to score cross-resistance of camptothecin-resistant cell lines to topotecan, an analog of camptothecin.

U937 cells [9] = assay: Escape velocity, characterization of topoisomerase inhibitors
HL-60 cells = assay: Fast scan analysis, differentiation of HL-60 cells; format: cell-based; settings: 1% DMSO
Experimental: (§3) Fast scan analysis was also performed on HL-60 cells that were treated with PMA and DMSO. A time course evaluation of PMA treated HL-60 cells was performed with fast scan data taken at 16 hours, 24 hours, 40 hours, and 72 hours post-treatment with 400 ng/ml PMA. A control sample of HL-60 cells was also tested using EtOH as the vehicle for purposes of comparing the differentiated cells with the undifferentiated HL-60 cells. The PMA-treated and control cells were harvested and trypsinized. The samples were then resuspended in PBS/1% BSA. A set of samples was also obtained and left as pellets at 4° C. for subsequent FACS analysis.
A time course evaluation of DMSO treated HL-60 cells was performed with fast scan data taken at 16 hours, 24 hours, 40 hours, and 70 hours post-treatment with 1% DMSO. A control sample of HL-60 cells was also tested for purposes of comparing the differentiated cells with the undifferentiated HL-60 cells. The DMSO-treated and control cells were then harvested and resuspended in PBS/1% BSA. A set of samples was also obtained and left as pellets at 4° C. for subsequent FACS analysis.

[10] = system: CD11b expression in HL-60 cells; assay: FACS CD11b expression profile; format: cell-based; settings: 1% DMSO
Experimental: as §3
FIG. 145 illustrates a histogram of the travel distance of the control cells as well as the PMA-treated cells at 16 hours, 24 hours, 40 hours, and 72 hours post-treatment. FIG. 146 illustrates the mean travel distances of the control cells as well as the PMA-treated cells at 16 hours, 24 hours, 40 hours, and 72 hours post-treatment. FIG. 147 illustrates the FACS CD11b expression profile in PMA-treated HL-60 cells as well as the control. CD11b is a known marker of cellular differentiation and is expressed on the surface of differentiating cells. […] The data illustrate that Optophoretic analysis can be used as an assay for the detection and quantification of cellular differentiation. […]

## CC[C@H]1OC(=O)[C@H](C)[C@@H](O[C@H]2C[C@@](C)(OC)[C@@H](O)[C@H](C)O2)[C@H](C)[C@@H](O[C@@H]2O[C@H](C)C[C@H](N(C)C)[C@H]2O)[C@](C)(O)C[C@@H](C)C(=O)[C@H](C)[C@@H](O)[C@]1(C)O [Erythromycin]
[1]
  time post-treatment at which a reduction in escape velocity can be seen (FIG. 81): 1 h
[1]; time zero, 30 minutes, 3 hours
  change of escape velocity over time (FIG. 80): decreases
[2]
  escape velocity (FIG. 80): same escape velocity as the untreated Erythromycin-sensitive strain

## Cc1ccc(NC(=O)c2ccc(CN3CCN(C)CC3)cc2)cc1Nc1nccc(-c2cccnc2)n1 [Gleevec, imatinib mesylate]
[3]
  escape velocity as compared to non-treated cells (FIG. 40): significantly lower escape velocity
[4]
  mean travel distances as compared to non-treated controls (FIG. 41): lower mean travel distances

## CN(C)CCCn1cc(C2=C(c3c[nH]c4ccccc34)C(=O)NC2=O)c2ccccc21 [Bisindolymalemide, Bisindolymaleimide]
U937 cells [5]; 50 ng/ml bisindolymaleimide + 10 ng/ml PMA
  Escape velocity Ave.: 15.1 μm/sec
U937 cells [5]; 50 ng/ml bisindolymaleimide, no PMA
  Escape velocity Ave.: 13.9 μm/sec
U937 cells [5]; 200 ng/ml BIMI for 30 minutes, then 10 ng/ml PMA
  effect on PMA-caused shift in escape velocity (FIG. 33): blocked the optophoretic shift in escape velocity
U937 cells [5]; 200 ng/ml bisindolymaleimide + 10 ng/ml PMA
  Escape velocity Ave.: 14.5 μm/sec
U937 cells [5]; 200 ng/ml bisindolymaleimide, no PMA
  Escape velocity Ave.: 14.0 μm/sec

## CC(=O)N1CCN(c2ccc(OCC3COC(Cn4ccnc4)(c4ccc(Cl)cc4Cl)O3)cc2)CC1 (stereo not shown) [ketoconazole]
Chang liver cells [6]
  mean travel distance: 20.97 μm
Chang liver cells [7]
  escape velocity vs control (FIG. 46): marked decrease in escape velocity

## O=C([O-])c1ccccc1O.[Na+] [Sodium Salicylate, Sodium salicylate]
U937 cells [8]; 5 mM and 20 mM, 5 and 24 hours
  shift in escape velocities (FIG. 37): slight but statistically significant shift in escape velocities
U937 cells [8]; 5 mM, 5 hours
  Escape velocity Ave.: 14.1
U937 cells [8]; 5 mM, 24 hours
  Escape velocity Ave.: 15.2
U937 cells [8]; 5 mM, 47 hours
  Escape velocity Ave.: 13.7
U937 cells [8]; 20 mM, 5 hours
  Escape velocity Ave.: 13.3
U937 cells [8]; 20 mM, 24 hours
  Escape velocity Ave.: 16.0
U937 cells [8]; 20 mM, 47 hours
  cell viability (trypan blue): all cells were dead

## Cc1oncc1C(=O)Nc1ccc(C(F)(F)F)cc1 [Leflunomide]
Jurkat cells
  effect on TNF-caused increase in escape velocity (FIG. 36): mitigate the increase in escape velocity caused by TNF

## CC[C@@]1(O)C(=O)OCc2c1cc1n(c2=O)Cc2cc3c(CN(C)C)c(O)ccc3nc2-1 [topotecan]
CEM/C2
  less sensitive than parental cell line CCRF-CEM: 970 fold
CCRF-CEM
  decrease in escape velocity as compared to the CEM/C2 cells (FIG. 67): larger decrease in escape velocity
U937 cells [9]; 4 μg/ml, four hours
  shift in escape velocity as compared to the camptothecin-treated cells (FIG. 54): larger shift in escape velocity
U937 cells [9]; 10 μM and 20 μM topotecan, six hours
  cellular debris: a significant amount of cellular debris was present
U937 cells [9]; 10 μM topotecan, 24 hour
  cell death: virtually all of the treated U937 cells were dead
U937 cells [9]; 2.5, 5 and 10 μM topotecan, 4 hour
  dead or necrotic cells: not a significant number of dead or necrotic cells

## C[S+](C)[O-] [DMSO, dimethylsulfoxide]
HL-60 cells
  time after treatment at which a noticeable decrease of the mean travel distance was detected: ≤ 16 h
[10]
  time after treatment at which a change in CD11b expression levels was detected: 40 h
